IC50 and GI50 data for two molecules are collected here from patent US20260365670A1, “EGFR INHIBITORS AND USES THEREOF” (DIZAL (JIANGSU) PHARMACEUTICAL CO., LTD., priority 2022, published 2026).

Read-outs that look alike come from different tables or passages of the source.

In test [1] the target is T1, EGFR (C797S L858R) (Homo sapiens, UniProt P00533, C797S/L858R).
T1 construct: purchased signalchem
The experiment in a line: Inhibition of EGFR (C797S L858R) biochemical enzymatic activity (HTRF). The conditions noted are these: 1 mM ATP. The method in brief:
(§1)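 In a buffer with 5 mM MgCl2, 1 mM MnCl2, 1 mM DTT and 0.01% CHAPS, enzyme turnover of 1 μM biotinylated TK substrate at 1 mM ATP is followed by HTRF after 1 h at room temperature. IC50 is obtained by a four-parameter fit.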

The target of test [2] is T2, EGFR wild type (Homo sapiens, UniProt P00533).
T2 construct: purchased Carna Bio
The experiment in a line: Inhibition of EGFR wild type biochemical enzymatic activity (HTRF). As to conditions: 1 mM ATP. The method in brief:
as §1

Test [3] deals with T3, EGFR Exon19Del/T790M (Homo sapiens, UniProt P00533, DEL746-750/T790M).
T3 construct: purchased Carna Bio
T3 sequence (P00533 with tags, fused parts or gaps DEL746-750/T790M limits assumed): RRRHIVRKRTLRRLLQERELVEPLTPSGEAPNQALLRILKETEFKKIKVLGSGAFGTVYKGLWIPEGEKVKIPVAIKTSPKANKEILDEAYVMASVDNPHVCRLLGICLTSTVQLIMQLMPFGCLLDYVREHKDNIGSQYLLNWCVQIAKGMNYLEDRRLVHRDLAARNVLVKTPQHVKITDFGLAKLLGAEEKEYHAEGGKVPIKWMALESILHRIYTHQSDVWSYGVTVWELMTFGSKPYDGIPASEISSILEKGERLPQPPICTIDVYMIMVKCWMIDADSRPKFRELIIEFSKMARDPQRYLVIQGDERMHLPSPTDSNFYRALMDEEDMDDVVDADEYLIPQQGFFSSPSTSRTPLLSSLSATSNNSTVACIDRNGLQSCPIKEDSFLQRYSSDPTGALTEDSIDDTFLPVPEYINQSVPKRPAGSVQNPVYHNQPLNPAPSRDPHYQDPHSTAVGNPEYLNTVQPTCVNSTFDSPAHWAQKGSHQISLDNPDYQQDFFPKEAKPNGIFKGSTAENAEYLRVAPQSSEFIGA
The experiment in a line: Inhibition of EGFR Exon19Del/T790M biochemical enzymatic activity (HTRF). As to conditions: 1 mM ATP. The gist of the method:
as §1

For test [4], the target named is T4, EGFR L858R/T790M (Homo sapiens, UniProt P00533, L858R/T790M).
T4 construct: purchased Carna Bio
T4 sequence (P00533 25-1210 T790M/L858R): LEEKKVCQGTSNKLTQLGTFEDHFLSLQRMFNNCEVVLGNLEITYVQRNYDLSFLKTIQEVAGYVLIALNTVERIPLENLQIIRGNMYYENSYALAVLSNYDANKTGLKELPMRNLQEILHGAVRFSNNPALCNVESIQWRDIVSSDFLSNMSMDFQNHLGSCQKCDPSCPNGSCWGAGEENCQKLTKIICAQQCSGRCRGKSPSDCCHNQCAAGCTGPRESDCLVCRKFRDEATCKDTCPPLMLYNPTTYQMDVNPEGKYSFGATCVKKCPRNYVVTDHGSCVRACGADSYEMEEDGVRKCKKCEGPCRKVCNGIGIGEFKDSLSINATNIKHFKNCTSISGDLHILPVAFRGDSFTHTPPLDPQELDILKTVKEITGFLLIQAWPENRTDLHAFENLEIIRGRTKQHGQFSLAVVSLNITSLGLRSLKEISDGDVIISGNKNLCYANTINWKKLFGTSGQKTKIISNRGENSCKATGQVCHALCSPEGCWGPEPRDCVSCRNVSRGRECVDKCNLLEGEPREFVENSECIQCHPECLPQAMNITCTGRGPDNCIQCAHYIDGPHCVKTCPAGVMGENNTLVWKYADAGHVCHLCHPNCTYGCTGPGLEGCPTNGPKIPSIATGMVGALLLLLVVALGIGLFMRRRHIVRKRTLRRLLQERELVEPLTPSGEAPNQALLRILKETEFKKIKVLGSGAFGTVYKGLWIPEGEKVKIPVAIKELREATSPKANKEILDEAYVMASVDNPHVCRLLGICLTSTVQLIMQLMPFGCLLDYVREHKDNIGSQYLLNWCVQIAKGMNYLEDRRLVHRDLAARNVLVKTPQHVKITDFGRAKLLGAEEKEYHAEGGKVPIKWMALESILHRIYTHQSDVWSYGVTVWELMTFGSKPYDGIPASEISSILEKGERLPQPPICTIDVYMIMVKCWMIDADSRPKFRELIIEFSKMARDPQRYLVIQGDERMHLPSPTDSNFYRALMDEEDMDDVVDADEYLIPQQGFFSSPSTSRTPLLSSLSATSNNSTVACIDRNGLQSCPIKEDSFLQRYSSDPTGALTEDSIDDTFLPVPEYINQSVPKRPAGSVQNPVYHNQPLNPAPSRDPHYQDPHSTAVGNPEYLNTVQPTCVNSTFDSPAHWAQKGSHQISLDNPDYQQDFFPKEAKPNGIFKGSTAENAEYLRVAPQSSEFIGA
The experiment in a line: Inhibition of EGFR L858R/T790M biochemical enzymatic activity (HTRF). The conditions noted are these: 1 mM ATP. The gist of the method:
as §1

Test [5] deals with T5, EGFR L858R (Homo sapiens, UniProt P00533, L858R).
T5 construct: purchased Carna Bio
The experiment in a line: Inhibition of EGFR L858R biochemical enzymatic activity (HTRF). As to conditions: 1 mM ATP. The method in brief: as §1

For test [6], the system named is A-431. The experiment in a line: Cell proliferation assay, A-431 cells (GI50, Table 6). It counts as cell-based. How it is done:
[Worded in the source for another cell line; this cell line is reported under the same test.] Ba/F3 cells expressing EGFR mutations were seeded in 384-well plates at 5000 cells/well in RPMI1640 medium containing […]. PC-9 at 500 cells/well was seeded into 384-well plates in RPMI1640 medium with 10% FBS. After overnight incubation, the assay plates were dosed with compounds at a series of concentrations. Alongside dosing the assay plates, the day 0 plate was processed using CellTiter-Glo® Luminescent Cell Viability Assay (Promega) to measure the number of viable cells (G0). The assay plates were further incubated for 72 hours and the number of viable cells (G3) was measured. The percentage of proliferation was calculated as: […]=100×(G3 value of sample well−G0 value)/(G3 value of DMSO control−G0 value). The concentration of compound producing 50% proliferation inhibition (GI50) was further calculated in best-fit curves using XLFit software. N/A=not available.

Test [7] addresses T6, EGFR (d746-750 C797S) (Homo sapiens, UniProt P00533, C797S/DEL746-750).
T6 construct: purchased signalchem
The experiment in a line: Inhibition of EGFR (d746-750 C797S) biochemical enzymatic activity (HTRF). The conditions noted are these: 1 mM ATP. The gist of the method:
as §1

Test [8] relates to PC-9. In words: Cell proliferation assay, PC-9 cells (CellTiter-Glo, 72 hours). It counts as cell-based. As to conditions: PC9 cells, read-out: GI50 PC9. The gist of the method:
(§2)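 Luminescent viable-cell counts were taken on a day 0 plate at dosing and again at endpoint. Proliferation was calculated as (sample − G0)/(DMSO − G0). Seeding was 5000 Ba/F3 or 500 PC-9 cells per well in RPMI1640, followed by overnight attachment and serial compound dilutions. The GI50 was fitted.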

In test [9] the target is T7, EGFR[T790M/C797S/L858R] (Homo sapiens, UniProt P00533, C797S/L858R/T790M).
T7 construct: purchased Carna Bio
In words: Inhibition of EGFR[T790M/C797S/L858R] biochemical enzymatic activity (HTRF). The conditions noted are these: 1 mM ATP. The gist of the method:
as §1

Test [10] concerns Ba/F3 cells expressing EGFR mutations. The experiment in a line: Cell proliferation assay, Ba/F3 cells expressing EGFR mutations (CellTiter-Glo, 72 hours). It counts as cell-based. The gist of the method: as §2
Test [11] has as its target T8, EGFR Exon19Del (Homo sapiens, UniProt P00533, DEL746-750).
T8 construct: purchased Carna Bio
The experiment in a line: Inhibition of EGFR Exon19Del biochemical enzymatic activity (HTRF). As to conditions: read-out: IC50 @Del19. The gist of the method: as §1

Test [12] deals with T9, EGFR[T790M/C797S/d746-750] (Homo sapiens, UniProt P00533, C797S/DEL746-750/T790M).
T9 construct: purchased Carna Bio
T9 sequence (P00533 with tags, fused parts or gaps DEL746-750/T790M/C797S limits assumed): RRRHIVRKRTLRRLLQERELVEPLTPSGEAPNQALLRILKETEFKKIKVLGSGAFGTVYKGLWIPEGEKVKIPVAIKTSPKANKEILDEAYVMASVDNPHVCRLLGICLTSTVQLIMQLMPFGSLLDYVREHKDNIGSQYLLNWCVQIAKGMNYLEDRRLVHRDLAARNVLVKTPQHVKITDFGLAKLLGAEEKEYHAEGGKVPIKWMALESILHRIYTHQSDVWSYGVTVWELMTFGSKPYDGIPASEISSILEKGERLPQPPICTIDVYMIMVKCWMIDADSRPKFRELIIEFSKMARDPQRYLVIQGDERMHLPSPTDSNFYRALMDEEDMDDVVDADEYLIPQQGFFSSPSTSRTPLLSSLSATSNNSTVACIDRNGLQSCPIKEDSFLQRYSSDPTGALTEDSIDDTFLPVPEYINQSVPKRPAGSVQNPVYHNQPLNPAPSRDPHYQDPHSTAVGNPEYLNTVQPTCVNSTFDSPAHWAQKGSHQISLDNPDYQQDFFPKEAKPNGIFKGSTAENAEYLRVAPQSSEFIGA
The experiment in a line: Inhibition of EGFR[T790M/C797S/d746-750] biochemical enzymatic activity (HTRF). The gist of the method: as §1

T6 sequence (P00533 with tags, fused parts or gaps DEL746-750/C797S limits assumed): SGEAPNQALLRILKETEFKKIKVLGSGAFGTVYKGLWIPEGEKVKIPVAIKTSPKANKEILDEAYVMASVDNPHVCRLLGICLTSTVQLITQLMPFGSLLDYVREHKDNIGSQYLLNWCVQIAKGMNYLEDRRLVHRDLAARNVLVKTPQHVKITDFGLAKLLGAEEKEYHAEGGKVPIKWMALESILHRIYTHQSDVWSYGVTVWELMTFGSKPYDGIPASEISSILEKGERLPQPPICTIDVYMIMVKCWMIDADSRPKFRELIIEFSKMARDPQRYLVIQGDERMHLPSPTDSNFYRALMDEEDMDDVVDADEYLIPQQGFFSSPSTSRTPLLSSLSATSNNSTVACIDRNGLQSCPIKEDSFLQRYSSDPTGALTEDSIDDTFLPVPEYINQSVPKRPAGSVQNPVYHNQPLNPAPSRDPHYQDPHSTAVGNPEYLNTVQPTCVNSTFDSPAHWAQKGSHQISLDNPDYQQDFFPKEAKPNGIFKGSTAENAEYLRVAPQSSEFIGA
T1 sequence (P00533 25-1210 C797S/L858R): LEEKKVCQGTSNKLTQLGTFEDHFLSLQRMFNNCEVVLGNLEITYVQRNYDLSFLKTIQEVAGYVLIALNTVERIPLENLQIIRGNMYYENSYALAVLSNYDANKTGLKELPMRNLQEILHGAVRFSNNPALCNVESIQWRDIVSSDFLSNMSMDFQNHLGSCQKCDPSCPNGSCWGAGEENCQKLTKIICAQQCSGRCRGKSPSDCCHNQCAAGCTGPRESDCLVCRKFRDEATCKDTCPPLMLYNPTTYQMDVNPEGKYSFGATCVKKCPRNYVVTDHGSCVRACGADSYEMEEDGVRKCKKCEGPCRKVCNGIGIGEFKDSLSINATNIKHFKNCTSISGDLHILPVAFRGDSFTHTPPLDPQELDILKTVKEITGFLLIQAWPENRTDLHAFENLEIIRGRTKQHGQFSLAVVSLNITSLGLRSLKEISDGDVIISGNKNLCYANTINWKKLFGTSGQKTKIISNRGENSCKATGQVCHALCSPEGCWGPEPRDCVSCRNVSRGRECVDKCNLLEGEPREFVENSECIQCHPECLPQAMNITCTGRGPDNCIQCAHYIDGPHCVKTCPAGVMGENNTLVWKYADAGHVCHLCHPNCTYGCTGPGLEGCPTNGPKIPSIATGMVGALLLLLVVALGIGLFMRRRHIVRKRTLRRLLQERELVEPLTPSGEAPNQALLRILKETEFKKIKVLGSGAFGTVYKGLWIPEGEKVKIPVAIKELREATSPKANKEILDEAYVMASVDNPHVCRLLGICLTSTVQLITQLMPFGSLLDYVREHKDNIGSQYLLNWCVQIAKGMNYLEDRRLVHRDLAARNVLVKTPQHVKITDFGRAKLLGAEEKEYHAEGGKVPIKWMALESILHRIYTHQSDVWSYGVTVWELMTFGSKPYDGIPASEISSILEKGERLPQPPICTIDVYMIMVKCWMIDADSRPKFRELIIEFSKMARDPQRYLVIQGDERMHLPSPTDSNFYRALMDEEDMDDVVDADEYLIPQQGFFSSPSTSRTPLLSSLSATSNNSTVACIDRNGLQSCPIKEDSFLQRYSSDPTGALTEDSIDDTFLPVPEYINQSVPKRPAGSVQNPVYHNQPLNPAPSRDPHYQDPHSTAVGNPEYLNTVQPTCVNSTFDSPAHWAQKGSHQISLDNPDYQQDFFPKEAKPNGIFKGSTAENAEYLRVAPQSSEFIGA
T8 sequence (P00533 with tags, fused parts or gaps DEL746-750 limits assumed): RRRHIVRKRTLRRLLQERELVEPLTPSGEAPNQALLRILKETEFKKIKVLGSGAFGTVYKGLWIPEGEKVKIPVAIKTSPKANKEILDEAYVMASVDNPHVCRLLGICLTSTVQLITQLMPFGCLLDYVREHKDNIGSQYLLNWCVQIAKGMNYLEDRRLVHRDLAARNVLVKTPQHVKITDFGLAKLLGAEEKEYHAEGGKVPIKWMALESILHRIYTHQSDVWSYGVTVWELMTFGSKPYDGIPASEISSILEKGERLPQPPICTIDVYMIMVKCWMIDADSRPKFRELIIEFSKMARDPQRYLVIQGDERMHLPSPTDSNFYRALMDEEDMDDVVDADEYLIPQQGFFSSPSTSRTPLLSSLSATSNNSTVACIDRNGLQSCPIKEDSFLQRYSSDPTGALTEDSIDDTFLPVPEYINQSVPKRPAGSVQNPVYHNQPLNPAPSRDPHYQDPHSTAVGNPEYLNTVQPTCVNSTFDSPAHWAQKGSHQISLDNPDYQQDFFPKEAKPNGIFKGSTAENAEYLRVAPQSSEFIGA

Consider `Cc1cc2cc(n1)-c1cnn(C)c1OCCN1CC3CCC(C3)(C1)n1c(nc3ccc(N4CCN(C5COC5)CC4)cc31)NC2=O` (single isomer, unassigned) [Example B58A], for which the concentration for half-maximal inhibition (IC50) in [1] (EGFR (C797S L858R), 1 h at room temperature, read-out: IC50 @L858-C797S) is greater than 5000 nM; in test [2] (EGFR wild type, 1 h at room temperature, read-out: IC50 @WT), greater than 5000 nM; in test [3] (EGFR Exon19Del/T790M, 1 h at room temperature, read-out: IC50 @Del19-T790M), greater than 5000 nM; in test [4] (EGFR L858R/T790M, 1 h at room temperature, read-out: IC50 @L858R-T790M), greater than 5000 nM; in test [5] (1 h at room temperature, read-out: IC50 @L858R) it was greater than 5000 nM; in [7] (EGFR (d746-750 C797S), 1 h at room temperature, read-out: IC50 @Del19-C797S), 3890 nM. Besides, the half-inhibitory concentration (IC50) was greater than 5000 nM in [9] (EGFR[T790M/C797S/L858R], 1 h at room temperature, read-out: IC50 @T790M- C797S - L858R); greater than 5000 nM in [11] (EGFR Exon19Del, 1 mM ATP, 1 h at room temperature); greater than 5000 nM in test [12] (EGFR[T790M/C797S/d746-750], 1 mM ATP, 1 h at room temperature, read-out: IC50 @T790M - C797S - Del19). Also, the GI50 in test [6] (A-431 cells) was 8610 nM; in test [8], 737 nM; in test [10] (BaF3 cells, EGFR DEL19 - C797S, read-out: GI50 DEL19 - C797S/BaF3), 163 nM; in [10] (BaF3 cells, EGFR DEL19 - T790-C797S, read-out: GI50 DEL19 - T790-C797S/BaF3), 229 nM; in test [10] (BaF3 cells, EGFR L858R - C797S, read-out: GI50 L858R - C797S/BaF3), 828 nM; in test [10] (BaF3 cells, EGFR L858R - T790-C797S, read-out: GI50 L858R - T790-C797S/BaF3), 90 nM. Also, the GI50 in test [10] (BaF3 cells, EGFR L858R - T790M, read-out: GI50 L858R - T790M/BaF3) amounted to 307 nM; in test [10] (BaF3 cells, EGFR L858R, read-out: GI50 L858R/BaF3), 1560 nM; in test [10] (EGFR DEL19 - T790M, read-out: GI50 DEL19 - T790M), 378 nM.
Regarding `Cc1cc2cc(n1)-c1cnn(C)c1OCCN1CC3CCC(CC3)(C1)n1c(nc3ccc(N4CCOCC4)cc31)NC2=O` [Example B2, 15,21-Dimethyl-5-(morpholin-4-yl)-23-oxa-2,9,11,16,20,21,26-heptaazaheptacyclo[26.2.2.1^{1,26}.1^{13,17}.0^{2,10}.0^{3,8}.0^{18,22}]tetratriaconta-3,5,7,9,13,15,17(34),18(22),19-nonaen-12-one], the IC50 in test [1] (EGFR L858-C797S, 1 h, room temperature, read-out: IC50 (nM) @L858-C797S) is 28 nM; in [2] (EGFR WT, 1 h, room temperature, read-out: IC50 (nM) @WT), greater than 5000 nM; in test [3] (EGFR Del19-T790M, 1 h, room temperature, read-out: IC50 (nM) @Del19-T790M) it was 13 nM; in [4] (EGFR L858R-T790M, 1 h, room temperature, read-out: IC50 (nM) @L858R-T790M) it was 25 nM; in [5] (1 h, room temperature, read-out: IC50 (nM) @L858R), 320 nM; in test [7] (EGFR Del19-C797S, 1 h, room temperature, read-out: IC50 (nM) @Del19-C797S), 560 nM. The half-inhibitory concentration (IC50) was 36 nM in test [9] (EGFR T790M-C797S-L858R, 1 h, room temperature, read-out: IC50 (nM) @T790M- C797S - L858R); 47 nM in test [11] (EGFR Del19, 1 mM ATP, 1 h, room temperature); 20 nM in test [12] (EGFR T790M-C797S-Del19, 1 mM ATP, 1 h, room temperature, read-out: IC50 (nM) @T790M - C797S - Del19). Further, the GI50 in [6] (Homo sapiens, A-431, A-431 cells) was 3160 nM; in test [8] (Homo sapiens, PC-9, 72 h) it was 102 nM; in test [10] (Mus musculus, BaF3, 72 h, BaF3 cells, EGFR DEL19 - C797S, read-out: GI50 DEL19 - C797S/BaF3) it was 18 nM; in test [10] (Mus musculus, BaF3, 72 h, BaF3 cells, EGFR DEL19 - T790-C797S, read-out: GI50 DEL19 - T790-C797S/BaF3), 4.7 nM; in test [10] (Mus musculus, BaF3, 72 h, BaF3 cells, EGFR L858R - C797S, read-out: GI50 L858R - C797S/BaF3) it was 153 nM; in test [10] (Mus musculus, BaF3, 72 h, BaF3 cells, EGFR L858R - T790-C797S, read-out: GI50 L858R - T790-C797S/BaF3), 10 nM. The GI50 in [10] (Mus musculus, BaF3, 72 h, BaF3 cells, EGFR L858R - T790M, read-out: GI50 L858R - T790M/BaF3) stood at 14 nM; in test [10] (Mus musculus, BaF3, 72 h, BaF3 cells, EGFR L858R, read-out: GI50 L858R/BaF3) it was 125 nM; in test [10] (Mus musculus, BaF3, 72 h, EGFR DEL19 - T790M, read-out: GI50 DEL19 - T790M), 5 nM.
